In data set [1] the test system is CFA-induced thermal hyperalgesia in mice. The data set is described as follows: CFA-induced heat hyperalgesia (Hargreaves test) after intrathecal injection. Type of data set: in vivo, mouse. How it is done:
All behavioral tests were performed with an experimenter blinded to the genotype. The mice used in the tests were backcrossed to C57BI/6 mice for at least five generations and were 2 to 3 month-old males (20-30 g).
CFA-induced heat hyperalgesia: the intraplantar region of one hind paw of each mouse was injected with 6 μl of 50% CFA solution or 10 μl of 1% carrageneen solution in saline. Thermal pain sensitivity was assessed by recording paw withdrawal latencies on exposure to a defined radiant heat stimulus (Hargreaves test) before CFA injection and 30 min after injection.
(§1) BAM 8-22 was purchased from Tocris (Bristol, UK) and was suspended in 0.9% saline. The drug was injected intrathecally under brief isoflurane (1.5%) anesthesia to reduce stress. A 30-gauge, 0.5-inch needle connected to a 10-μl syringe was inserted into one side of the L5 or L6 spinous process at an angle of approximately 20° above the vertebral column and slipped into the groove between the spinous and transverse processes. The needle was moved carefully forward to the intervertebral space.
The ability of BAM 8-22 to modulate persistent inflammatory pain was determined by examining enhanced pain sensitivity to a noxious heat stimulus, as monitored by the Hargreaves test 24 hours after intra-plantar injection of CFA (6 μl, 50%) into one hind paw. […] In WT mice, a single intrathecal injection of BAM 8-22 (1 mM, 5 μl) was able to alleviate thermal hyperalgesia at 30 min post-injection, increasing the PWL by 1.9-fold compared to pre-drug baseline (FIG. 6A, WT, n=13, ipsilateral paw).

For another data set, the system named is DRG neurons. The data set is described as follows: Calcium imaging of cultured DRG neurons. It is filed as cell-based, mouse. As to the method:
Calcium Imaging of Cultured Dorsal Root Ganglia (DRG) Neurons
DRG neurons were plated on poly-D-lysine/laminin-coated coverslips and cultured for 24 hours. […] Briefly, neurons were loaded with Fura 2-acetomethoxy ester (Molecular Probes) for 30 min in dark at room temperature. After washing, neurons were imaged at 340/380 nm excitation to detect intracellular free calcium. All tests were performed with an experimenter blinded to the genotype.

For a further data set, the system named is opioid receptors. The conditions noted are these: literature; cited from earlier work.
The test system of another data set is awake mice. The experiment in a line: Spontaneous pain responses after intrathecal injection in awake mice. It is filed as in vivo, mouse. The conditions noted are these: awake WT and Mrgpr-clusterΔ−/− mice. As to the method:
as §1
Intrathecal injection of BAM 8-22 in awake mice elicited short-term (less than 10 min) spontaneous pain responses.

The next data set deals with human MrgprX1 (Homo sapiens, UniProt Q96LB2). The note with it: literature; cited from earlier work.
Sequence of human MrgprX1 (Q96LB2 whole entry): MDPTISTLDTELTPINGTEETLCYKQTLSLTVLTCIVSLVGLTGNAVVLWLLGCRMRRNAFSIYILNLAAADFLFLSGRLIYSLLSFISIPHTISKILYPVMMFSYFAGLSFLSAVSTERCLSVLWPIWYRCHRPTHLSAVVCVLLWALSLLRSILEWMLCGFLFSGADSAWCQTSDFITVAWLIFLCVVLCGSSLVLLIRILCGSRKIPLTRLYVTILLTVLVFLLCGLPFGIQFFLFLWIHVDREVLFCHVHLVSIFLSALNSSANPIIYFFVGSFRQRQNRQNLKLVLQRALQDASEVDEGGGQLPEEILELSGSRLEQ
The next data set addresses T1, mouse MrgprC11 (Mus musculus, UniProt Q8CIP3).
T1 sequence (Q8CIP3 1-322): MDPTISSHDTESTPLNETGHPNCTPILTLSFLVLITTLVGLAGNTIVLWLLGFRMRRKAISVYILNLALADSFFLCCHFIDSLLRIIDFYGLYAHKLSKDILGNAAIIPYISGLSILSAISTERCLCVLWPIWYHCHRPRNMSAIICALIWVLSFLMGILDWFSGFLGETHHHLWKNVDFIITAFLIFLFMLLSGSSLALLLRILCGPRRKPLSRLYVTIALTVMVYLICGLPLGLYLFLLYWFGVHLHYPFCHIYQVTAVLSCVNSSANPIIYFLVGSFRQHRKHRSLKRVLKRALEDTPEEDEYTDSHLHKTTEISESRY
The note with it: Han et al, 2002, Lembo et al.; cited from earlier work.

The subject of data set [2] is acute thermal nociception in mice. The data set is described as follows: Tail immersion test (50° C.) after intrathecal injection. Type of data set: in vivo, mouse. The note with it: naive WT and Mrgpr-clusterΔ−/− mice, 1 mM, 5 μl i.th. As to the method: Tail immersion test: mice were gently restrained in a 50-ml conical tube that the mice voluntarily entered. The protruding one third of the tail was then dipped into a 50° C. water bath. Latency to respond to the heat stimulus with vigorous flexion of the tail was measured three times and averaged.
as §1
To determine whether intrathecal BAM 8-22 also affected acute thermal nociception, tail-immersion tests in naïve WT and Mrgpr-clusterΔ^−/− mice were performed.

Entries after “also recorded” stand apart in the source; their conditions may differ.

With BAM 8-22, the “anti-hyperalgesic effect, ipsilateral hind paw” value in data set [1] (Mrgpr-clusterΔ−/− mice, 1 mM, 5 μl i.th., 24 h after CFA) is given as “not observed”. For the same substance, the “sensitivity to acute radiant heat (Hargreaves test)” value in data set [1] (WT and Mrgpr-clusterΔ−/− mice, contralateral hind paw) is “did not significantly change”. The “thermal hyperalgesia of the ipsilateral hind paw” value in data set [1] (WT mice, 1 mM, 5 μl i.th., 24 h after CFA) is given as “significantly alleviated”. The “increase of paw withdrawal latency (PWL) compared to pre-drug baseline” value in data set [1] (WT mice, ipsilateral paw, 1 mM, 5 μl i.th., 30 min post-injection, 24 h after CFA) was determined as 1.9 fold. Also, in data set [1] (either group (WT, Mrgpr-clusterΔ−/−), 1 mM, 5 μl i.th.), the “PWL of the contralateral (control side) hind paw” value is reported as “did not significantly affect”. The “responses in DRG neurons” value is “no responses” in the data set with DRG neurons (adult mutant (Mrgpr-clusterΔ−/−) DRG neurons) and “few or no responses” with DRG neurons (newborn Mrgpr-clusterΔ−/− mice). The “percentage of DRG neurons responding, WT vs MrgprA1GFP/GFP mice” value with DRG neurons (comparison of WT and MrgprA1GFP/GFP mice) was “did not differ significantly”. In addition, the “activation of opioid receptors” value in the data set on opioid receptors is listed as “but not opioid receptors”. For the same substance, in the data set with awake mice, the “duration of spontaneous pain responses elicited by intrathecal injection” value was “less than 10 min”. Further, on human MrgprX1, the “activation of human MrgprX1” value is on record as “specifically activates”. Also, at mouse MrgprC11, the “activation of mouse MrgprC11” value is given as “specifically activates”. The “tail flick latency vs pre-drug” value in data set [2] was “not significantly different; also recorded: did not significantly change”.

Source of the values: patent US20110150769A1, “IDENTIFICATION AND USE OF COMPOUNDS FOR TREATING PERSISTENT PAIN” (priority 2009, published 2011).
